Data reported in US5439899A, “Cosalane and related compounds having activity against aids and aids-related infections” (priority 1993, dated 1995).
Several values for one entry are separate records, joined by “and”; a condition that tells them apart may be missing. Equal values may be shown once. Read-outs that look alike come from different tables or passages of the source.

Experiments:
HIV = test: NCI in vitro anti-HIV screen (XTT soluble-formazan assay, protection of HIV-infected CEM cells); assay type: cell-based; details: for EC50: approximate values, one value per run; for TI50 (IC/EC), therapeutic index: ratio IC50/EC50 of the same run; for anti-HIV effect (statement): NCI anti-HIV screen, in vitro, CEM cells
Excerpt: The National Cancer Institute's procedure for testing for agents active against Human Immunodeficiency Virus (HIV) (Weislow, O. W. et al, "New soluble-formazan assay for HIV-1 cytopathic effects: application to high-flux screening of synthetic and natural products for AIDS-antiviral activity," J. Natl. Cancer Inst., 81, 577-586, 1989) is designed to detect agents acting at any stage of the virus reproductive cycle. The assay includes the killing of T4 lymphocytes by HIV. Pursuant to the test, small amounts of HIV are added to cells, and a complete cycle of virus reproduction is necessary to obtain the required cell killing. Agents that interact with virions, cells, or virus gene-products to interfere with viral activities will protect cells from cytolysis. The system is thus designed to detect anti-HIV activity. However, compounds that degenerate or are rapidly metabolized in the culture conditions may not show activity in this screen. All tests are compared with at least one positive (e.g., AZT-treated) control done at the same time under identical conditions.
(§1) 1. The candidate agent is dissolved in dimethyl sulfoxide (unless otherwise instructed), then diluted 1:200 in cell culture medium. Further dilutions (half-log10) are prepared before adding to 96-well microtiter plates.
(§2) 2. T4 lymphocytes (CEM cell line) are exposed to HIV at a virus-to-cell ratio of approximately 0.05 and are plated along with non-infected control cells into drug-containing wells or wells with medium alone.
(§3) 3. Cultures are incubated at 37° in a 5% carbon dioxide atmosphere for 6 days.
(§4) 4. The tetrazolium salt, XTT, is added to all wells, and cultures are incubated to allow formazan color development by viable cells.
(§5) 5. […] are analyzed spectrophotometrically to quantitate formazan production and, in addition, are viewed microscopically for detection of viable cells and confirmation of protective activity.
(§6) 6. Drug-treated virus-infected cells are compared with drug-treated non-infected cells and with other appropriate controls (untreated infected and untreated non-infected cells, drug-containing wells without cells, etc.) on the same plate.
(§7) 7. Data are reviewed in comparison with other tests performed at the same time, and a determination about activity is made.
Approximate values for 50% effective concentration (EC50) (protection in infected cells), 50% inhibitory concentration (IC50) and the therapeutic index (IC50 /EC50) have been calculated for each test and are provided in the tables of each Example.
Examples 1, 6 and 8 compounds, respectively, against the measured test values expressed as a percentage of the uninfected, untreated control values. The solid line depicts the percentage of surviving HIV-infected cells treated with sample (at the indicated concentration) relative to uninfected, untreated controls. The solid line expresses the in vitro anti-HIV activity of the compound of the tested compound. The dashed line depicts the percentage of surviving uninfected cells treated with the compound of the Example relative to the same uninfected, untreated controls. The dashed line expresses the in vitro growth inhibitory properties of the compound of the Example. The viral cytopathic effect of a compound of each Example is indicated by a combination of dashes and dots. […] Survival values of this parameter less then 50% are considered acceptable in the current protocol.

[1] = system: T4 lymphocytes (CEM cell line); test: NCI in vitro anti-HIV screen, growth inhibition of uninfected CEM cells (XTT); assay type: cell-based; details: for IC50: read-out: IC50 (50% inhibitory concentration); for cytotoxicity (statement): NCI anti-HIV screen, CEM cells
Method: The assay includes the killing of T4 lymphocytes by HIV. Pursuant to the test, small amounts of HIV are added to cells, and a complete cycle of virus reproduction is necessary to obtain the required cell killing. Agents that interact with virions, cells, or virus gene-products to interfere with viral activities will protect cells from cytolysis. The system is thus designed to detect anti-HIV activity. However, compounds that degenerate or are rapidly metabolized in the culture conditions may not show activity in this screen. All tests are compared with at least one positive (e.g., AZT-treated) control done at the same time under identical conditions.
as §1, §2, §3, §4, §5, §6, §7
Survival values of this parameter less then 50% are considered acceptable in the current protocol.

[2] = Human immunodeficiency virus 1, CCRF-CEM, 144 h, HIV-infected CEM cells, 6 days, XTT, read-out: EC50 (50% effective concentration, protection in infected cells)
[3] = Homo sapiens, CCRF-CEM, 144 h, drug-treated uninfected CEM cells, 6 days, XTT, approximate values, one value per run
[4] = drug-treated uninfected CEM cells, 6 days, XTT, approximate values, one value per run
[5] = HIV-infected CEM cells, 6 days, XTT, read-out: EC50 (50% effective concentration, protection in infected cells)
[6] = Human immunodeficiency virus 1, CCRF-CEM, 144 h, read-out: EC50 (50% effective concentration, protection in infected cells), HIV-infected CEM cells, 6 days, XTT

CCCCCCCCCCC(c1ccc(O)c(C(=O)O)c1)c1ccc(O)c(C(=O)O)c1 [Formula XVIII]
EC50 (HIV; [2]): 33.2 µM | TI50 (IC/EC), therapeutic index (HIV): 2.55 × 10^0 | IC50 [1, 3]: 84.6 µM

(5α)-3β-[4,4-di(5'-bromo-4'-methoxy-3'-methoxycarbonyl)phenyl-1-buten-3-yl]cholestane [Formula VII]
IC50 [1, 4]: > 280 µM

CCCCCCCCCCCCCCCC=C(c1cc(Cl)c(OC)c(C(=O)O)c1)c1cc(Cl)c(OC)c(C(=O)O)c1 [Formula XXIV, 1,1-di(3'-carboxy-5'-chloro-4'-methoxy)phenyl-1-heptadecene]
IC50 [1, 3]: 26.6 µM | cytotoxicity (statement) [1]: cytotoxic | IC50 [1, 4]: 25.9 µM

COc1c(Cl)cc(C(=Cc2c(F)c(F)c(F)c(F)c2F)c2cc(Cl)c(OC)c(C(=O)O)c2)cc1C(=O)O [Formula XXV]
EC50 (HIV; [5]): 102 µM and 176 µM | EC50 (HIV; [2]): 140 µM | IC50 [1, 3]: 434 µM | IC50 [1, 4]: 552 µM and 412 µM

CCCCCC=C(c1cc(Cl)c(OC)c(C(=O)OC)c1)c1cc(Cl)c(OC)c(C(=O)OC)c1 [Formula XXVI, di(3'-carbomethoxy-5'-chloro-4'-methoxy)phenyl-1-heptene]
IC50 [1, 3]: > 29.1 µM | IC50 [1, 4]: > 28.2 µM

CC(CCC=C(c1cc(Cl)c(O)c(C(=O)O)c1)c1cc(Cl)c(O)c(C(=O)O)c1)C1CC[C@H]2[C@@H]3CC[C@H]4CCCC[C@]4(C)[C@H]3CC[C@]12C (stereo partly shown) [Formula IX]
IC50 [1, 4]: > 59 µM and > 69 µM and 79 µM

CCCCCCCCCC=C(c1cc(Cl)c(O)c(C(=O)O)c1)c1cc(Cl)c(O)c(C(=O)O)c1 [Formula XIII, 1,1-di(3'-ammoniumcarboxy-5'-chloro-4'-hydroxy)phenyl-1-undecene]
EC50 (HIV; [2]): 37.3 µM | TI50 (IC/EC), therapeutic index (HIV): > 1.32 × 10^0 | IC50 [1, 3]: > 49.1 µM

O=C(O)c1cc(C(=CCCBr)c2cc(Cl)c(O)c(C(=O)O)c2)cc(Cl)c1O [Formula XVII]
EC50 (HIV; [5]): 122 µM and 121 µM and 95.1 µM | EC50 (HIV; [2]): 136 µM | TI50 (IC/EC), therapeutic index (HIV): 1.58 × 10^0 and 1.93 × 10^0 and 1.50 × 10^0 and 2.71 × 10^0 | IC50 [1, 3]: 214 µM | IC50 [1, 4]: 237 µM and 181 µM and 258 µM

CCCCCCCCCC=C(c1cc(Br)c(O)c(C(=O)O)c1)c1cc(Br)c(O)c(C(=O)O)c1 [Formula XX, 1,1-di(3'-ammoniumcarboxy-5'-bromo-4'-hydroxy)phenyl-1-undecene]
EC50 (HIV; [2]): 55.5 µM | TI50 (IC/EC), therapeutic index (HIV): > 3.44 × 10^0 | IC50 [1, 3]: > 191 µM

CCCCCCCCCC=C(c1cc(Cl)c(OC)c(C(=O)O)c1)c1cc(Cl)c(OC)c(C(=O)O)c1 [Formula XXVII, 1,1-di(3'-ammoniumcarboxy-5'-chloro-4'methoxy) phenyl-1-undecene]
IC50 [1, 3]: 149 µM | IC50 [1, 4]: 166 µM and 169 µM

CCCCCCCCCCCCCCCC=C(c1cc(Cl)c(O)c(C(=O)O)c1)c1cc(Cl)c(O)c(C(=O)O)c1 [Formula XIV, 1,1-di(3'-ammoniumcarboxy-5'-chloro-4'-hydroxy)phenyl-1-heptadecene]
EC50 (HIV; [2]): 4.62 µM | TI50 (IC/EC), therapeutic index (HIV): > 7.57 × 10^0 | IC50 [1, 3]: > 35 µM

CCCCCCCCCCCCCCCCCCCCCCCCCCCCCC=C(c1cc(Cl)c(O)c(C(=O)O)c1)c1cc(Cl)c(O)c(C(=O)O)c1 [Formula XI, 1,1-di(3'-ammoniumcarboxy-5'-chloro-4'hydroxy) phenyl-1-untriacontene]
EC50 (HIV; [5]): 16.3 µM and 11 µM and 9.3 µM | EC50 (HIV; [2]): 13.3 µM | anti-HIV effect (statement) (HIV): greatest effect on inhibiting HIV-infected cells, while having a lesser effect on uninfected cells | TI50 (IC/EC), therapeutic index (HIV): > 1.67 × 10^+1 and > 1.36 × 10^+4 and > 1.90 × 10^+1 and > 2.40 × 10^+1 | IC50 [1, 3]: > 222 µM | IC50 [1, 4]: > 220 µM

COC(=O)c1cc(C(=CCCBr)c2cc(Cl)c(OC)c(C(=O)OC)c2)cc(Cl)c1OC [Formula XIX, 4-bromo-1,1-di(3'-carbomethoxy-5'-chloro4'-methoxy)phenyl-1-butene]
EC50 (HIV; [5]): 7.73 µM | EC50 (HIV; [2]): 8.19 µM | TI50 (IC/EC), therapeutic index (HIV): 2.62 × 10^0 and 1.96 × 10^0 | IC50 [1, 3]: 21.5 µM | IC50 [1, 4]: 15.2 µM

CCCCCC=C(c1cc(Br)cc(C(=O)O)c1O)c1cc(Br)cc(C(=O)O)c1O [Formula XV]
EC50 (HIV; [2]): 15.3 µM | TI50 (IC/EC), therapeutic index (HIV): > 1.43 × 10^0 | IC50 [1, 3]: > 21.8 µM

CCCCCC=C(c1cc(Br)cc(C(=O)O)c1OC)c1cc(Br)cc(C(=O)O)c1OC [Formula XXI]
EC50 (HIV; [5]): 69.3 µM | EC50 (HIV; [2]): 97.1 µM | TI50 (IC/EC), therapeutic index (HIV): 1.80 × 10^0 and 3.52 × 10^0 | IC50 [1, 3]: 175 µM | IC50 [1, 4]: 244 µM

CCCCCC=C(c1cc(Cl)c(OC)c(C(N)=O)c1)c1cc(Cl)c(OC)c(C(N)=O)c1 [Formula XVI, 1,1-di(3'-carbamoyl-5'-chloro-4'-methoxy)phenyl-1-heptene]
IC50 [1, 3]: 17.4 µM | IC50 [1, 4]: 17.2 µM and 16.3 µM and 13.4 µM

C[C@H](CCC=C(c1cc(Cl)c(O)c(C(=O)O)c1)c1cc(Cl)c(O)c(C(=O)O)c1)[C@H]1CC[C@H]2[C@@H]3CC[C@@H]4CC(F)(F)CC[C@]4(C)[C@H]3CC[C@]12C [Formula X, (5β)-3,3-difluoro-17-[5,5-di(3-ammoniumcarboxy-5-chloro-4-hydroxy)phenyl-1-methyl-4-pentenyl]androstane]
EC50 (HIV; [6]): 24 µM | TI50 (IC/EC), therapeutic index (HIV): 1.80 × 10^0 | IC50 [1, 3]: 41 µM

CC(C)CCC[C@@H](C)[C@H]1CC[C@H]2[C@@H]3CC[C@H]4C[C@@H](CCCC(c5cc(Cl)c(O)c(C(=O)O)c5)c5cc(Cl)c(O)c(C(=O)O)c5)CC[C@]4(C)[C@H]3CC[C@]12C [Formula VI, (5α)-3β-[4,4-Di(3'-ammoniumcarboxy-5'-chloro-4'-hydroxy)phenyl-1-butyl]cholestane]
EC50 (HIV; [6]): 17 µM | anti-HIV effect (statement) (HIV): greatest effect on inhibiting HIV-infected cells, while having a lesser effect on uninfected cells | TI50 (IC/EC), therapeutic index (HIV): > 1.80 × 10^+1 and > 2.10 × 10^+1 and > 1.30 × 10^+1 and > 1.20 × 10^+1 | EC50 (HIV; read-out: EC50 (50% effective concentration, protection in infected cells), HIV-infected CEM cells, 6 days, XTT): 15 µM and 23 µM and 25 µM | IC50 ([1]; Homo sapiens, CCRF-CEM, 144 h): > 310 µM

CCCCCCCCCC=C(c1cc(Br)cc(C(=O)O)c1OC)c1cc(Br)cc(C(=O)O)c1OC [Formula XXIII, 1,1-[di-(3'-ammoniumcarboxy-5'-bromo-2'methoxy)phenyl]-1-undecene]
IC50 [1, 3]: 88.9 µM | cytotoxicity (statement) [1]: cytotoxic | IC50 [1, 4]: 79.5 µM and 68.3 µM and 69.8 µM

CCCCCCCCCCCCCCCCC(c1ccc(O)c(C(=O)O)c1)c1ccc(O)c(C(=O)O)c1 [Formula XXII]
EC50 (HIV; [5]): 3.9 µM | TI50 (IC/EC), therapeutic index (HIV): 1.56 × 10^0 and 3.06 × 10^+1 and 3.05 × 10^+1 | IC50 [1, 4]: 51.4 µM and 119 µM

COc1c(Cl)cc(C(=CCC[C@H]2CC[C@@]3(C)[C@@H](CC[C@@H]4[C@@H]3CC[C@]3(C)[C@@H]([C@H](C)CCCC(C)C)CC[C@@H]43)C2)c2cc(Cl)c(OC)c(C(=O)O)c2)cc1C(=O)O [Formula V]
anti-HIV effect (statement) (HIV): greatest effect on inhibiting HIV-infected cells, while having a lesser effect on uninfected cells | IC50 ([1]; Homo sapiens, CCRF-CEM, 144 h): > 300 µM

CCCCCC=C(c1cc(Br)c(OC)c(C(=O)OC)c1)c1cc(Br)c(OC)c(C(=O)OC)c1 [Formula XII, 1,1-di(5'-bromo-3'-carbomethoxy-4'-methoxy)phenyl-1-heptene]
anti-HIV effect (statement) (HIV): greatest effect on inhibiting HIV-infected cells, while having a lesser effect on uninfected cells | anti-HIV effect (statement) (HIV; listed as structure XII): most effective compounds studied in terms of prevention of the cytopathic effect of HIV in CEM lymphocytes | IC50 [1, 3]: > 8.95 µM
